The results in this text go back to US20220017833A1, “Methods and Compositions for Scavenging Sulfides from Hydrocarbon Fluids and Aqueous Streams” (Nexgen Oilfield Chemicals, LLC, priority 2019, published 2022).

Type in all cases: physicochemical
Data set [1] is described as follows: Storage Capacity Loss Test. To be noted: for Min to BT / Min to FD: Short Reaction Time Capacity Test, diaminol in water + 10.00 g MeOH, 20 g test. Here is the method:
This test compares the scavenging capacity after 24 hours of storage of the scavenger system at room temperature to that after 72 hours of storage thereof at room temperature. In one embodiment, a sample of the scavenger system is made fresh and split in two portions. The Short Reaction Time Capacity Test is run on one portion after standing 24 hours on the bench at room temperature. Then the same test is run on the other portion after standing 72 hours on the bench at room temperature. The two measured capacities are compared to see if the product degrades in storage. Importantly, some scavengers lose activity with time due to secondary reactions and re-equilibrations that degrade their active form.
Table 5 compares different alkyl substituents on glyoxy alkyl diaminols. These compounds were prepared by reacting one mole of glyoxal, as a 40% aqueous solution, with 2.1 moles of various primary amines in a sufficient amount of MeOH to keep the product from separating into an aqueous layer and a non-aqueous layer. For each amine substituent: methyl (Me), ethyl (Et), normal-propyl (n-Pr), iso-propyl (i-Pr), and iso-propanol [1-propan-2-ol] (i-PrOH), the presence or absence of alpha branching on that substituent is noted. The weight ratios of the diaminols, water, and MeOH, are listed, along with their equivalent weights (Eq. Wt.) and the total equivalents per 20 g test (Eq/test). To measure the product stability, the Storage Capacity Loss between 24 and 72 hours was determined. As described earlier, a fresh sample of the scavenger system is split in two portions. The Short Reaction Time Capacity Test is run on one portion after standing 24 hours on the bench at room temperature. Then the same test is run on the other portion after standing 72 hours on the bench at room temperature. Both the 24-hr and 72-hr capacities (Min to FD and BT) and molar capacities (Min/Eq FD and BT) are listed in the table with the percent capacity loss for each substituent calculated below it. […] The others lost 34% to 77% of their scavenging capacity in 48 hours (72-24), presumably due to secondary reactions and re-equilibrations that degraded their active form. In this system employing only methanol, all of these compositions failed both the Hot Spray Fouling Test and the Spent Water Flowability Test. Two of them, the iso-propylamine [propan-2-amine] and the iso-propanolamine [1-aminopropan-2-ol] passed the Spent Solids Fouling Test.

A short description of data set [2]: Spent Solids Fouling Test. To be noted: Table 5, glyoxy alkyl diaminol in water and MeOH only. An excerpt:
In every application, the active component of the scavenger system reacts with H2S to from a reaction product. Once all the active scavenger has been so reacted, it is spent. […] Thioethers are much less water soluble than amines, so the reaction products are often insoluble. Thioether bridges also connect spent scavenger molecules to each other, thereby forming insoluble polymeric solids. These solids accumulate and foul (interfere with the function) of the vessel, line, or equipment to which the scavenger is being fed. […] If any solids or insoluble viscous liquids are observed poorly dispersed in the spent scavenger system or clinging to the sides of the vessel, the scavenging system employed in that Long Reaction Time Capacity Test fails this test. A homogeneous, single-phase solution or thin layer of readily flowable non-sticking liquid constitutes a pass.

The nature of data set [3]: Spent Water Flowability Test. Further details: key: Pass: A homogeneous, single-phase solution or thin layer of readily flowable non-sticking liquid constitutes a pass.; Fail: Any solids or thick, sticky insoluble liquid is a fail.; PASS: A homogeneous, single-phase solution or thin layer of readily flowable non-sticking liquid constitutes a pass.; FAIL: Any solids or thick, sticky insoluble liquid is a fail. To be noted: Table 5; glyoxy alkyl diaminol in water and MeOH only. Here is the method:
In field applications, spent scavenger is disposed of through a wastewater system. Spent scavenger might be soluble in the scavenger system but insoluble in wastewater. If it cannot be disposed of, it is not suitable for use. To ensure wastewater processing runs trouble free, spent scavenger passing the Spent Solids Fouling Test is then added to 39 times its weight in water (2.5%) and examined again for insoluble solids and viscous, sticky liquids that might foul the wastewater system. Any solids or thick, sticky insoluble liquid is a fail. A homogeneous, single-phase solution or thin layer of readily flowable non-sticking liquid constitutes a pass.

The nature of data set [4]: Solution Homogeneity Test. To be noted: Table 5; glyoxy alkyl diaminol in water and MeOH only. An excerpt:
In one aspect, as two-phase reaction products are problematic, scavenger system homogeneity is desired. The two phases could be emulsified or otherwise finely dispersed, but in practice, even fine, seemingly stable dispersions eventually separate or stratify in extended storage or critical use and are not robust enough for practical use. They are not allowed, for example, to be fed through capillaries for fear of plugging them. In this pass/fail test, a sample is held up for visual inspection in a backlit clear vial. A clear, single-phase, homogeneous solution is a pass. Anything else is a fail.

The next data set can be described thus: Hot Spray Fouling Test. To be noted: Table 5; glyoxy alkyl diaminol in water and MeOH only. The text has this: In many gas applications, the scavenger must by sprayed into a hot gas stream. This can create insoluble materials (“solids”) as the scavenger system evaporates and/or decomposes. These solids accumulate and foul (interfere with the function) of the vessel, line, or equipment to which the scavenger is being fed. This precludes the scavenger being used in that application. Referring now to FIG. 2, a spray test system 200 is utilized to for the Hot Spray Fouling Test. In one embodiment, an injection atomizer apparatus 22 is employed, wherein the scavenger formulation (not separately labeled) is sprayed onto a sheet 26 through an atomizing nozzle 24, like that used to introduce the scavenger into a gas line, tank, or vessel. The material is first placed in a double boiler (not shown) and brought to 180° F. The heated liquid is then placed in the injection atomizer apparatus 22 and sprayed horizontally onto an aluminum sheet 26 twelve inches away. The chemical drains gravitationally down the sheet where it is funneled into a beaker 28 for collection. If solids are observed on the sheet 26 or in the draining or collected fluid, the sample fails. If no solids are observed, it passes the test.

Where [5] appears, read: 72-24 Hrs storage at room temperature.
Where [6] appears, read: Sample Age 24 Hrs at room temperature.
Where [7] appears, read: Sample Age 72 Hrs at room temperature.

For the compound `CC(C)NC(O)C(O)NC(C)C` (stereo not shown) [GIDA, 1,2-bis[(propan-2-yl)amino]ethane-1,2-diol], in data set [1] (setting [5]), the “BT Capacity Loss” value is −2% and the “FD Capacity Loss” value was 0%. Besides, in data set [1] (Sample Age 24 Hrs), the “Min/Eq BT” value was 528 Min/Eq and the “Min/Eq FD” value worked out at 409 Min/Eq. In addition, in data set [1] (setting [6]), the “Min to BT” value was determined as 40 min and the “Min to FD” value is 31 min. In addition, in data set [1] (Sample Age 72 Hrs), the “Min/Eq BT” value came to 541 Min/Eq and the “Min/Eq FD” value was 409 Min/Eq. In data set [1] (setting [7]), the “Min to BT” value turned out to be 41 min and the “Min to FD” value came out at 31 min. Further, the “loss of scavenging capacity (degradation) in storage” value in data set [1] (in 48 hours (72-24), room temperature) is recorded as “no degradation”. Besides, the “Spent Solids Fouling” value in data set [2] (listed as i-Pr) is reported as “Pass”. For the same compound, in data set [2] (listed as iso-propylamine), the “Spent Solids Fouling” value is recorded as “passed”. In addition, the “Spent Water Flowability” value in data set [3] is “Fail”. Also, the “Solution Homogeneity” value in data set [4] was “Pass”. The “Hot Spray Fouling” value in “Hot Spray Fouling Test” was “Fail”.
